Molecular target: T1, human OX2 receptor (Homo sapiens, UniProt O43614)
T1 construct: expressed in transfected cells
T1 sequence (O43614 1-444): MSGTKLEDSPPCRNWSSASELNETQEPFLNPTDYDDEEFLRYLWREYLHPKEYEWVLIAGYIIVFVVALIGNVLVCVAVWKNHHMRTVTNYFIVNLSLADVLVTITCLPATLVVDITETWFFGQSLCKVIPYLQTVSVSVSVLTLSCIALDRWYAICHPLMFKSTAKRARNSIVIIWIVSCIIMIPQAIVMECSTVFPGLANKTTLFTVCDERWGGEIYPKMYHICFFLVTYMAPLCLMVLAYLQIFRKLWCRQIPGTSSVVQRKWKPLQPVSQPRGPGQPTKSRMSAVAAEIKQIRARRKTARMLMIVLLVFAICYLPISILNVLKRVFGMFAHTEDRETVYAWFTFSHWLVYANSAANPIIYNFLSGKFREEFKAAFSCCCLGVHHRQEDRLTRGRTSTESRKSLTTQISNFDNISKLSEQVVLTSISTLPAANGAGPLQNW
Assay: Measurement of orexin type 2 receptor agonist activity (calcium fluorescence, Fluo-4, FDSS)
Format: cell-based
Conditions: 3 uM test compound; CHO cells expressing human OX2 receptor; DMSO = 0%, 10 nM orexin A (human) = 100%
Procedure, shortened: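 Agonist activity (%) was normalised to the response to 10 nM final human orexin A (100%) and to the DMSO vehicle (0%). The response was measured as the Fluo-4 calcium signal, read kinetically over 1 min 40 s after compound addition to Fluo-4/probenecid-loaded stable CHO-K1 clones expressing human OX2 (aa 1-444).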

Row | Structure (SMILES) | OX2R agonist activity (3 uM, %) [%]
1 | CS(=O)(=O)N[C@@H]1CN2C(=O)N(c3noc4cccc(-c5ccccc5F)c34)CC[C@@H]2C1(F)F [Example 273, N-{(4aR,6R)-5,5-difluoro-2-[4-(2-fluorophenyl)-1,2-benzoxazol-3-yl]-1-oxooctahydropyrrolo[1,2-c]pyrimidin-6-yl}methanesulfonamide] | 103
2 | CS(=O)(=O)N[C@@H]1CN2C(=O)N(c3noc4cc(C(F)F)cc(-c5c(F)cc(F)cc5F)c34)C[C@@H]2C1(F)F [Example 274, N-{(6R,7aR)-2-[6-(difluoromethyl)-4-(2,4,6-trifluorophenyl)-1,2-benzoxazol-3-yl]-7,7-difluoro-3-oxohexahydro-1H-pyrrolo[1,2-c]imidazol-6-yl}methanesulfonamide] | 102
3 | CCS(=O)(=O)N[C@@H]1CN2C(=O)N(c3noc4cc(C)nc(-c5c(F)cccc5F)c34)CC[C@@H]2C1(F)F [Example 275, N-{(4aR,6R)-2-[4-(2,6-difluorophenyl)-6-methyl[1,2]oxazolo[4,5-c]pyridin-3-yl]-5,5-difluoro-1-oxooctahydropyrrolo[1,2-c]pyrimidin-6-yl}ethanesulfonamide] | 103
4 | CS(=O)(=O)N[C@@H]1CN2C(=O)N(c3noc4cccc(-c5cccc(F)c5F)c34)CC[C@@H]2C1(F)F [Example 276, N-{(4aR,6R)-2-[4-(2,3-difluorophenyl)-1,2-benzoxazol-3-yl]-5,5-difluoro-1-oxooctahydropyrrolo[1,2-c]pyrimidin-6-yl}methanesulfonamide] | 100
5 | CS(=O)(=O)N[C@@H]1CN2C(=O)N(c3noc4cccc(-c5ccc(F)cc5)c34)CC[C@@H]2C1(F)F [Example 277, N-{(4aR,6R)-5,5-difluoro-2-[4-(4-fluorophenyl)-1,2-benzoxazol-3-yl]-1-oxooctahydropyrrolo[1,2-c]pyrimidin-6-yl}methanesulfonamide] | 106
6 | CS(=O)(=O)N[C@@H]1CN2C(=O)N(c3noc4cccc(-c5cccs5)c34)CC[C@@H]2C1(F)F [Example 278, N-{(4aR,6R)-5,5-difluoro-1-oxo-2-[4-(thiophen-2-yl)-1,2-benzoxazol-3-yl]octahydropyrrolo[1,2-c]pyrimidin-6-yl}methanesulfonamide] | 109
7 | O=C1N(c2noc3cc(F)cc(-c4c(F)cccc4F)c23)CC[C@H]2N1C[C@@H](NS(=O)(=O)CF)C2(F)F [Example 279, N-{(4aR,6R)-2-[4-(2,6-difluorophenyl)-6-fluoro-1,2-benzoxazol-3-yl]-5,5-difluoro-1-oxooctahydropyrrolo[1,2-c]pyrimidin-6-yl}-1-fluoromethanesulfonamide] | 104
8 | O=C1N(c2noc3ccc(F)c(-c4c(F)cccc4F)c23)CC[C@H]2N1C[C@@H](NS(=O)(=O)C1CC1)C2(F)F [Example 280, N-{(4aR,6R)-2-[4-(2,6-difluorophenyl)-5-fluoro-1,2-benzoxazol-3-yl]-5,5-difluoro-1-oxooctahydropyrrolo[1,2-c]pyrimidin-6-yl}cyclopropanesulfonamide] | 101
9 | O=C1N(c2noc3cc(F)cc(-c4c(F)cc(F)cc4F)c23)CC[C@H]2N1C[C@@H](NS(=O)(=O)C1CC1)C2(F)F [Example 281, N-{(4aR,6R)-5,5-difluoro-2-[6-fluoro-4-(2,4,6-trifluorophenyl)-1,2-benzoxazol-3-yl]-1-oxooctahydropyrrolo[1,2-c]pyrimidin-6-yl}cyclopropanesulfonamide] | 107
10 | O=c1n(-c2noc3cc(F)cc(-c4c(F)cccc4F)c23)cc2n1C[C@@H](NS(=O)(=O)CF)C2(F)F [Example 283, N-{(6R)-2-[4-(2,6-difluorophenyl)-6-fluoro-1,2-benzoxazol-3-yl]-7,7-difluoro-3-oxo-2,5,6,7-tetrahydro-3H-pyrrolo[1,2-c]imidazol-6-yl}-1-fluoromethanesulfonamide] | 107
11 | O=C1N(c2noc3cccc(-c4c(F)cccc4F)c23)CC[C@H]2N1C[C@@H](NS(=O)(=O)CF)C2(F)F [Example 284, N-{(4aR,6R)-2-[4-(2,6-difluorophenyl)-1,2-benzoxazol-3-yl]-5,5-difluoro-1-oxooctahydropyrrolo[1,2-c]pyrimidin-6-yl}-1-fluoromethanesulfonamide] | 109

Other lines, results leading:

Row | OX2R agonist activity (3 uM, %) [%] | Structure (SMILES)
12 | 105 | O=C1N(c2noc3cccc(-c4c(F)cccc4F)c23)CC[C@H]2N1C[C@@H](NS(=O)(=O)C1CC1)C2(F)F [Example 285, N-{(4aR,6R)-2-[4-(2,6-difluorophenyl)-1,2-benzoxazol-3-yl]-5,5-difluoro-1-oxooctahydropyrrolo[1,2-c]pyrimidin-6-yl}cyclopropanesulfonamide]
13 | 105 | Cc1cc2onc(-n3cc4n(c3=O)C[C@@H](NS(=O)(=O)N(C)C)C4(F)F)c2c(-c2c(F)cccc2F)n1 [Example 286, N′-{(6R)-2-[4-(2,6-difluorophenyl)-6-methyl[1,2]oxazolo[4,5-c]pyridin-3-yl]-7,7-difluoro-3-oxo-2,5,6,7-tetrahydro-3H-pyrrolo[1,2-c]imidazol-6-yl}-N,N-dimethylsulfuric diamide]
14 | 101 | O=C1N(c2noc3cc(F)cc(-c4c(F)cccc4F)c23)C[C@H]2N1C[C@@H](NS(=O)(=O)CF)C2(F)F [Example 287, N-{(6R,7aR)-2-[4-(2,6-difluorophenyl)-6-fluoro-1,2-benzoxazol-3-yl]-7,7-difluoro-3-oxohexahydro-1H-pyrrolo[1,2-c]imidazol-6-yl}-1-fluoromethanesulfonamide]
15 | 101 | O=c1n(-c2noc3cc(F)cc(-c4c(F)cc(F)cc4F)c23)cc2n1C[C@@H](NS(=O)(=O)CF)C2(F)F [Example 288, N-{(6R)-7,7-difluoro-2-[6-fluoro-4-(2,4,6-trifluorophenyl)-1,2-benzoxazol-3-yl]-3-oxo-2,5,6,7-tetrahydro-3H-pyrrolo[1,2-c]imidazol-6-yl}-1-fluoromethanesulfonamide]
16 | 106 | CS(=O)(=O)N[C@@H]1CN2C(=O)N(c3noc4cccc(-c5ccc(F)cc5F)c34)CC[C@@H]2C1(F)F [Example 290, N-{(4aR,6R)-2-[4-(2,4-difluorophenyl)-1,2-benzoxazol-3-yl]-5,5-difluoro-1-oxooctahydropyrrolo[1,2-c]pyrimidin-6-yl}methanesulfonamide]
17 | 106 | CS(=O)(=O)N[C@@H]1CN2C(=O)N(c3noc4cccc(-c5ccccc5Cl)c34)CC[C@@H]2C1(F)F [Example 291, N-{(4aR,6R)-2-[4-(2-chlorophenyl)-1,2-benzoxazol-3-yl]-5,5-difluoro-1-oxooctahydropyrrolo[1,2-c]pyrimidin-6-yl}methanesulfonamide]
18 | 106 | CS(=O)(=O)N[C@@H]1CN2C(=O)N(c3noc4cccc(-c5cc(F)ccc5F)c34)CC[C@@H]2C1(F)F [Example 292, N-{(4aR,6R)-2-[4-(2,5-difluorophenyl)-1,2-benzoxazol-3-yl]-5,5-difluoro-1-oxooctahydropyrrolo[1,2-c]pyrimidin-6-yl}methanesulfonamide]
19 | 113 | O=c1n(-c2noc3ccc(F)c(-c4c(F)cc(F)cc4F)c23)cc2n1C[C@@H](NS(=O)(=O)CF)C2(F)F [Example 293, N-{(6R)-7,7-difluoro-2-[5-fluoro-4-(2,4,6-trifluorophenyl)-1,2-benzoxazol-3-yl]-3-oxo-2,5,6,7-tetrahydro-3H-pyrrolo[1,2-c]imidazol-6-yl}-1-fluoromethanesulfonamide]
20 | 104 | COc1cc(-c2c(F)cc(F)cc2F)c2c(N3CC[C@H]4N(C[C@@H](NS(C)(=O)=O)C4(F)F)C3=O)noc2n1 [Example 294, N-{(4aR,6R)-5,5-difluoro-2-[6-methoxy-4-(2,4,6-trifluorophenyl)[1,2]oxazolo[5,4-b]pyridin-3-yl]-1-oxooctahydropyrrolo[1,2-c]pyrimidin-6-yl}methanesulfonamide]
21 | 113 | CS(=O)(=O)N[C@@H]1CN2C(=O)N(c3noc4cc(F)cc(-c5ncc(F)cc5F)c34)CC[C@@H]2C1(F)F [Example 295, N-{(4aR,6R)-2-[4-(3,5-difluoropyridin-2-yl)-6-fluoro-1,2-benzoxazol-3-yl]-5,5-difluoro-1-oxooctahydropyrrolo[1,2-c]pyrimidin-6-yl}methanesulfonamide]
22 | 102 | CS(=O)(=O)N[C@@H]1CN2C(=O)N(c3noc4cc(OC(F)F)cc(-c5c(F)cc(F)cc5F)c34)CC[C@@H]2C1(F)F [Example 296, N-{(4aR,6R)-2-[6-(difluoromethoxy)-4-(2,4,6-trifluorophenyl)-1,2-benzoxazol-3-yl]-5,5-difluoro-1-oxooctahydropyrrolo[1,2-c]pyrimidin-6-yl}methanesulfonamide]
23 | 107 | O=C1N(c2noc3cc(F)c(F)c(-c4c(F)cc(F)cc4F)c23)CC[C@H]2N1C[C@@H](NS(=O)(=O)CF)C2(F)F [Example 297, N-{(4aR,6R)-2-[5,6-difluoro-4-(2,4,6-trifluorophenyl)-1,2-benzoxazol-3-yl]-5,5-difluoro-1-oxooctahydropyrrolo[1,2-c]pyrimidin-6-yl}-1-fluoromethanesulfonamide]

From patent US11987586B1 (TAKEDA PHARMACEUTICAL COMPANY LIMITED, priority 2022, dated 2024)
